# In ChEMBL document CHEMBL1123072, “1,3-Dialkyl-8-(p-sulfophenyl)xanthines: potent water-soluble antagonists for A1- and A2-adenosine receptors” (J Med Chem, 1985):
# How the values were obtained:
# Adenosine receptor A1 = target: T1, Adenosine receptor A1 (Rattus norvegicus, UniProt P25099); assay: Antagonism of binding of 1 nM [3H]cyclohexyladenosine to adenosine A1 receptors on rat cortical membranes; assay type: cell membranes, Membrane
# T1 sequence (P25099 whole entry): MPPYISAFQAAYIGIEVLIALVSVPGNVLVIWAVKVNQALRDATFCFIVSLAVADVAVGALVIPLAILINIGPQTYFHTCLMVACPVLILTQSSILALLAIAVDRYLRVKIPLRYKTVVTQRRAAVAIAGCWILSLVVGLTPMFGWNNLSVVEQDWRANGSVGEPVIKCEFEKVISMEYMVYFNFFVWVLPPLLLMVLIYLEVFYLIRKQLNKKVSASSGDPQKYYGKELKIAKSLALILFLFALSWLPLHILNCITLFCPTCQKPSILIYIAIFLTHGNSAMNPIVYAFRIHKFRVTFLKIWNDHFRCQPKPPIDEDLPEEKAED
# Adenosine receptor A2a [1] = target: T2, Adenosine receptor A2a (Cavia porcellus, UniProt P46616)
# Description: Antagonism of cyclic [3H]AMP accumulation in guinea pig cerebral cortical slices (elicited by 15 uM 2-chloroadenosine at adenosine A2 receptor)
# [2] = Solubility in water; assay type: physicochemical; settings: read-out: S
# Adenosine receptor A2a [3] = target: T2, Adenosine receptor A2a; assay: Antagonism of cyclic [3H]AMP accumulation elicited by 15 uM 2-chloroadenosine in [3H]adenine-labeled guinea pig cerebral cortical slices at A2 receptor; assay type: functional
# T2 sequence (P46616 whole entry): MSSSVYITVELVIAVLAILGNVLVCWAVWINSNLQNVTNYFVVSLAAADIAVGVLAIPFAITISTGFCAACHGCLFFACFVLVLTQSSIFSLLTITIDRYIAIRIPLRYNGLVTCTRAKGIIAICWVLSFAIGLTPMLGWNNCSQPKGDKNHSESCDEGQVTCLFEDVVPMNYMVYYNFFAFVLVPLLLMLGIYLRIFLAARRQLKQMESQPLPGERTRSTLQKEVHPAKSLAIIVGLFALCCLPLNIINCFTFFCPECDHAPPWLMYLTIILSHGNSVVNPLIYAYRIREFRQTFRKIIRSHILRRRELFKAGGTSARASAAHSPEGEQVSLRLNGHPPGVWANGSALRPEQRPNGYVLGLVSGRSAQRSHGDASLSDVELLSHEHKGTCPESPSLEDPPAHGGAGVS
SMILES,Ki (Adenosine receptor A1) [nM],Ki (Adenosine receptor A2a [1]) [nM],solubility [2] [µM],EC50 (Adenosine receptor A2a [3]) [nM]
CC(C)CCn1c(=O)c2nc(-c3ccccc3)[nH]c2n(CC(C)C)c1=O,1800,> 10000,10,–
CCCn1c(=O)c2nc(-c3ccc(C(=O)O)cc3)[nH]c2n(CCC)c1=O,170,–,–,–
Cn1c(=O)c2[nH]c(-c3ccc(S(=O)(=O)O)cc3)nc2n(C)c1=O,–,6300,> 20000,–
Cn1c(=O)c2c(nc(-c3ccccc3)n2C)n(C)c1=O,17000,27000,–,–
Cn1c(=O)c2[nH]c(-c3ccc(C(=O)O)cc3)nc2n(C)c1=O,–,2500,90,–
Cn1c(=O)c2[nH]c(-c3cccc(C(=O)O)c3)nc2n(C)c1=O,32000,15000,–,–
Cn1c(=O)c2nc(-c3ccccc3C(=O)O)[nH]c2n(C)c1=O,> 50000,> 30000,–,–
CC(C)CCn1c(=O)c2[nH]c(-c3ccc(S(=O)(=O)O)cc3)nc2n(CC(C)C)c1=O,3500,7000,–,–
Cc1nc2c(=O)n(C)c(=O)n(C)c2[nH]1,6500,14000,–,–
CCCn1c(=O)c2nc[nH]c2n(CCC)c1=O,700,–,–,–
Cn1c(=O)c2[nH]c(-c3ccccc3O)nc2n(C)c1=O,750,1700,–,–
Nc1nc(Cl)nc2c1ncn2[C@@H]1O[C@H](CO)[C@@H](O)[C@H]1O,–,–,–,8000
CC(C)CCn1c(=O)c2[nH]cnc2n(CC(C)C)c1=O,13000,> 150000,–,–

# Second part, the compound after the results:
Ki (Adenosine receptor A1) [nM],Ki (Adenosine receptor A2a [1]) [nM],solubility [2] [µM],EC50 (Adenosine receptor A2a [3]) [nM],SMILES
340,1000,–,–,Cn1c(=O)c2[nH]c(-c3cccc(O)c3)nc2n(C)c1=O
50,130,5,–,Cn1c(=O)c2nc(-c3ccc(O)cc3)[nH]c2n(C)c1=O
210,710,–,–,CCCn1c(=O)c2[nH]c(-c3ccc(S(=O)(=O)O)cc3)nc2n(CCC)c1=O
1100,900,–,–,Cn1c(=O)c2[nH]c(-c3cccc(N)c3)nc2n(C)c1=O
2.5,1000,–,–,CCCn1c(=O)c2[nH]c(-c3ccc(Cl)cc3N)nc2n(CCC)c1=O
850,1700,–,–,Cn1c(=O)c2nc(-c3ccccc3N)[nH]c2n(C)c1=O
2.9,50,–,–,CCCn1c(=O)c2nc(-c3ccc(O)cc3)[nH]c2n(CCC)c1=O
–,550,–,–,Cn1c(=O)c2[nH]c(-c3ccccc3)nc2n(C)c1=O [8-PHENYL THEOPHYLLINE]
230,130,–,–,Cn1c(=O)c2[nH]c(-c3ccc(N)cc3)nc2n(C)c1=O
